Assay results taken from US20240270743A1, “TETRAHYDROPYRAZOLOPYRIDINE-ANALOG LIGANDS OF NLRX1 AND USES THEREOF” (LANDOS BIOPHARMA, INC., priority 2021, published 2024).

Columns and labels:
[1] = system: CD4+ T cells; assay: Immunological screening in vitro in CD4+ T cells (flow cytometry); assay type: cell-based, C57BL/6 mice; details: 100 nanomolar, 24 h, anti-CD3/CD28, PMA and ionomycin last 6 h; for production of TNFα / percentage of TNFα+ CD4+ T cells: relative to vehicle control (FIG. 3A); for production of IFNγ / percentage of IFNγ+ CD4+ T cells: relative to vehicle control (FIG. 3B)
Source text: Cell culture. Spleens were excised from C57BL/6 mice. Spleens were crushed between the frosted ends of microscope slides and filtered to provide a cellular suspension. Red blood cells were lysed through hypotonic lysis. Remaining cells were washed and filtered. CD4+ T cells were enriched within the suspension using magnetic sorting based negative selection. Cells were collected and plated within 96 well plates coated with anti-CD3/CD28 and cultured in the presence of LABP-72-4, LABP-72-38, LABP-72-56, LABP-72-69 at 0 or 100 nanomolar for 24 h. During the last 6 h of culture, cells were stimulated with phorbol 12-myristate-13-acetate (PMA) and ionomycin.
Immunological analysis. Cells were collected from 96 well plates and stained with a cocktail of antibodies for immunophenotyping by flow cytometry. Culture supernatant was collected and assayed for cytokine concentrations by cytometric bead array. Data was captured on a BD FACS Celesta and analyzed using FACSDiva.

[2] = system: high fat diet induced obesity model; assay: High fat diet-induced model of obesity; assay type: in vivo, C57BL6 mice; details: 10 mg/kg daily oral gavage for 4 weeks
Experimental: Mouse model. C57BL6 mice were challenged with 16 weeks of high fat feeding by ad libitum exposure to rodent diet chow containing 60% kcal from fat. After 12 weeks of challenge, mice were treated daily with LABP-72-38 at 10 mg/kg for 4 weeks. Treatment was delivered by oral gavage. Mice were weighed weekly. Blood glucose levels were measured by glucometer on blood collected from the tail vein. After 16 weeks of diet, livers were excised and weighed. Weights were normalized to the total body weight.

[3] = system: OVA-induced model of asthma; assay: OVA-induced model of asthma; assay type: in vivo, BALB/c mice; details: 50 mg/kg daily by oral gavage, days 14-17, day 18
Experimental: OVA-induced model. BALB/c mice were immunized with 10 μg of ovalbumin (OVA) in aluminum hydroxide gel by intraperitoneal injection on day 0 and 7 of the experiment. Mice were then exposed to OVA (8% w/v) by aerosolization for 25 minutes daily between days 14 and 17. Treatment with LABP-72-38 (50 mg/kg) or vehicle control occurred daily between days 14 and 17 by oral gavage. An unchallenged negative control group was included for comparison. Dosage was calculated based off mean body weights. Immunological analysis. Lungs were collected on day 18 (OVA) or day 27 (HDM). Lung tissue was minced and digested in RPMI supplemented with FBS, HEPES, and calcium chloride containing 300 U/mL collagenase and 50 U/mL DNase for 45 minutes at 37° C. After filtration, red blood cells were lysed. Cells were labeled with mixtures of extracellular (CD45, CD3, CD4, CD8, MHCII, CD11b, CD11c, SiglecF, Ly6C, Ly6G) antibodies in a sequential live staining in 96-well plates in preparation for flow cytometry. Data was captured on a BD FACS Celesta and analyzed using FACSDiva.

[4] = system: bleomycin mouse model of pulmonary fibrosis; assay: Bleomycin-induced model of pulmonary fibrosis; assay type: in vivo, C57BL/6 mice; details: 50 mg/kg once daily oral gavage from day 7, lungs 2 weeks after bleomycin
Experimental: Bleomycin model. C57BL/6 mice were anesthetized by isoflurane and intratracheally administered 1 mg/kg bleomycin at day 0. LABP-72-38 was prepared within a 0.5% methylcellulose (12-15 cP) solution. Dosage used was 50 mg/kg delivered once daily, by oral gavage beginning 7 days after bleomycin challenge. Lungs were collected 2 weeks after bleomycin challenge.
Flow Cytometry. Lungs were collected into RPMI/FBS buffer containing collagenase (300U/mL) and DNase (50U/mL) for digestion. Tissues were digested for 45 minutes under stirring at 37° C. Resultant cellular suspensions were filtered through 100 μm strainers, and centrifuged (300× g, 8 min). Red blood cells were lysed from the cellular suspensions. Cells were filtered and washed in fresh RPMI. Cells were labeled with mixtures of extracellular (CD45, CD3, CD4, CD8, CD19, NK1.1, F4/80, CD11b, Gr1) and intracellular (IL21) antibodies in a sequential live staining in 96-well plates. Data was acquired using a FACS Celesta flow cytometer with FACSDiva software.

[5] = system: house dust mite model of asthma; assay: House dust mite (HDM)-induced model of asthma; assay type: in vivo, BALB/c mice; details: 20 mg/kg daily intranasal, 3 weeks of house dust mite challenge
Experimental: HDM-induced model. BALB/c mice were sensitized to house dust mite with 25 μg administered daily by intranasal instillation for five days. Challenge with house dust mite (25 μg/d) occurred for 5 consecutive days for the following three weeks. Treatment with LABP-72-38 (20 mg/kg) or vehicle control occurred daily during this three-week period. An unchallenged negative control group was included for comparison. Immunological analysis. Lungs were collected on day 18 (OVA) or day 27 (HDM). Lung tissue was minced and digested in RPMI supplemented with FBS, HEPES, and calcium chloride containing 300 U/mL collagenase and 50 U/mL DNase for 45 minutes at 37° C. After filtration, red blood cells were lysed. Cells were labeled with mixtures of extracellular (CD45, CD3, CD4, CD8, MHCII, CD11b, CD11c, SiglecF, Ly6C, Ly6G) antibodies in a sequential live staining in 96-well plates in preparation for flow cytometry. Data was captured on a BD FACS Celesta and analyzed using FACSDiva.

SMILES	production of TNFα / percentage of TNFα+ CD4+ T cells [1]	production of IFNγ / percentage of IFNγ+ CD4+ T cells [1]	blood glucose level ([2]; 16 weeks high fat diet (FIG. 7A))	body weight normalized liver weight ([2]; 16 weeks high fat diet, compared to vehicle (FIG. 7B))	percentage of eosinophils within the lung ([3]; relative to vehicle control (FIG. 4A))	concentrations of anti-OVA IgE antibodies in the serum ([3]; relative to vehicle control (FIG. 4B))	proportions of neutrophils in the lungs ([4]; relative to vehicle (FIG. 6A))	proportions of IL21+ cells in the lungs ([4]; relative to vehicle (FIG. 6B))	percentage of eosinophils within the lung ([5]; relative to vehicle control (FIG. 5A))	percentage of neutrophils within the lung ([5]; relative to vehicle control (FIG. 5B))
O=C(O)Cc1cncc(N2CCc3nn(-c4cc(F)cc(F)c4)cc3C2=O)c1 [LABP-72-4]	significantly reducing	significantly reducing	–	–	–	–	–	–	–	–
O=C(O)Cc1cncc(N2CCc3nn(-c4cc(F)cc(F)c4)cc3C2=O)c1 [LABP-72-38, 2-(5-(2-(3,5-difluorophenyl)-4-oxo-2,4,6,7-tetrahydro-5H-pyrazolo[4,3-c]pyridin-5-yl)pyridin-3-yl)acetic acid]	–	–	reduced	reduced	reduced	reducing	decreased	decreased	reduced	reduced
O=C(O)Cc1ccc(N2CCc3c(cnn3-c3cc(F)cc(F)c3)C2=O)cn1 [LABP-72-69, 2-(5-(1-(3,5-difluorophenyl)-4-oxo-1,4,6,7-tetrahydro-5H-pyrazolo[4,3-c]pyridin-5-yl)pyridin-2-yl)acetic acid]	significantly reducing	significantly reducing	–	–	–	–	–	–	–	–
